Measurements from the supplement of paper PMC10307832.

Tests used:
Test in all cases: relative viability (nuclei count vs DMSO), 5 days (fraction); higher = more cells survive
[1] = compound: C1=CC=C(C(=C1)C2=CC=C(C=C2)C3=CSC4=C3C(=C(C(=O)N4)C#N)O)O + Cc1nc(NC(=O)N2CCC[C@H]2C(N)=O)sc1-c1ccnc(C(C)(C)C(F)(F)F)c1 [Alpelisib] (partner 2 µM)
Outline: (§1)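 Lung cancer cell lines, seeded in 1536-well plates, were treated the following day by pin tool with a single drug or with five library-drug doses (not always all listed) in √10 steps on top of a fixed anchor-drug dose. Cells were fixed and nuclei stained in one step after 5 days, and nuclei were counted. Relative viability is the nuclei count for treated wells divided by that for vehicle wells, reported as medians of duplicate plates.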

TGX 221 + Trametinib = compound: CC1=CN2C(=O)C=C(N=C2C(=C1)C(C)NC3=CC=CC=C3)N4CCOCC4 [TGX 221] + CC(=O)Nc1cccc(-n2c(=O)n(C3CC3)c(=O)c3c(Nc4ccc(I)cc4F)n(C)c(=O)c(C)c32)c1 [Trametinib] (partner 0.02 µM)
Outline: as §1

Ricolinostat + Dasatinib = compound: O=C(CCCCCCNC(=O)c1cnc(N(c2ccccc2)c2ccccc2)nc1)NO [Ricolinostat] + Cc1nc(Nc2ncc(C(=O)Nc3c(C)cccc3Cl)s2)cc(N2CCN(CCO)CC2)n1 [Dasatinib] (partner 0.075 µM)
Outline: as §1

TGX 221 + Vorinostat = compound: CC1=CN2C(=O)C=C(N=C2C(=C1)C(C)NC3=CC=CC=C3)N4CCOCC4 [TGX 221] + O=C(CCCCCCC(=O)Nc1ccccc1)NO [Vorinostat] (partner 1 µM)
Outline: as §1

Cell Line	relative viability ([1]; first compound 0.08 µM)	relative viability ([1]; first compound 0.253 µM)	relative viability ([1]; first compound 0.8 µM)	relative viability ([1]; first compound 2.53 µM)	relative viability ([1]; first compound 8 µM)	relative viability (TGX 221 + Trametinib; first compound 0.08 µM)	relative viability (TGX 221 + Trametinib; first compound 0.253 µM)	relative viability (TGX 221 + Trametinib; first compound 0.8 µM)	relative viability (TGX 221 + Trametinib; first compound 2.53 µM)	relative viability (TGX 221 + Trametinib; first compound 8 µM)	relative viability (Ricolinostat + Dasatinib; first compound 0.253 µM)	relative viability (Ricolinostat + Dasatinib; first compound 0.8 µM)	relative viability (Ricolinostat + Dasatinib; first compound 2.53 µM)	relative viability (TGX 221 + Vorinostat; first compound 0.08 µM)	relative viability (TGX 221 + Vorinostat; first compound 0.253 µM)	relative viability (TGX 221 + Vorinostat; first compound 0.8 µM)	relative viability (TGX 221 + Vorinostat; first compound 2.53 µM)	relative viability (TGX 221 + Vorinostat; first compound 8 µM)	relative viability (Ricolinostat + Dasatinib; first compound 0.08 µM)
A-427	1.08	1.13	1.13	1.11	1.12	0.686	0.747	0.771	0.627	0.7	0.621	0.583	0.471	0.872	0.876	0.817	0.847	0.856	
NCI-H1975	0.508	0.694	0.542	0.721	0.485	0.313	0.414	0.356	0.289	0.272	0.354	0.307	0.381	0.749	0.656	0.689	0.718	0.607	0.402
HCC-827	1.09	1.01	0.993	1.06	1.06	0.556	0.473	0.478	0.44	0.493	0.363	0.287	0.361	0.777	0.922	0.888	0.891	0.852	0.24
UMC-11	0.668	0.73	1.01	1.2	0.793	0.671	0.648	0.822	0.777	0.823	0.39	0.399	0.242	0.417	0.391	0.402	0.373	0.359	0.427
NCI-H3122	0.795	0.909	0.89	0.844	0.902	0.244	0.188	0.224	0.211	0.257	0.903	0.899	0.562	1.02	0.823	1.08	0.969	1.04	0.791
LXF-289	1.02	0.969	1.06	1.05	0.965	0.67	0.757	0.708	0.674	0.744	0.274	0.272	0.306	0.77	0.757	0.732	0.714	0.771	0.193
NCI-H647	0.559	1	1.11	1.19	1.34	0.436	0.375	0.355	0.247	0.297	0.144	0.181	0.246	0.466	0.442	0.457	0.547	0.665	0.109
COR-L23	0.832	0.998	0.702	0.92	0.63	0.507	0.592	0.573	0.577	0.523	0.477	0.471	0.242	0.425	0.409	0.436	0.469	0.336	0.373
BEN	0.828	1.11	0.918	1.27	0.756	1.03	0.969	0.93	0.998	0.891	0.322	0.279	0.213	0.588	0.572	0.523	0.501	0.547	0.269
LC-2-ad	0.803	0.943	1	1	0.965	0.846	0.906	0.927	0.885	0.858	0.566	0.482	0.455	0.676	0.682	0.761	0.71	0.67	0.41
NCI-H650	1.1	1.36	0.961	1.11	1.22	0.932	0.894	0.974	0.908	0.861	0.463	0.365	0.314	0.425	0.488	0.459	0.542	0.401	0.36
NCI-H1563	0.783	1.03	0.991	0.832	0.998						0.461	0.441	0.494						0.472
NCI-H1793	0.699	0.624	0.598	0.581	0.45	0.462	0.374	0.398	0.357	0.306	0.397	0.348	0.322	0.612	0.521	0.589	0.592	0.588	
HCC-78	0.286	0.485	0.296	0.29	0.349	0.735	0.586	0.757	0.551	0.469	0.438	0.356	0.281	0.518	0.449	0.428	0.338	0.362	
LCLC-97TM1	0.251	0.346	0.265	0.225	0.173	0.178	0.172	0.22	0.187	0.185	0.853	0.878	0.34	0.819	0.459	0.856	0.615	0.847	0.727
NCI-H2009	1.11	1.09	1.14	1.11	1.09	0.25	0.196	0.204	0.152	0.173	0.295	0.347	0.365	0.731	0.687	0.72	0.819	0.559	0.231
H3255	0.799	0.778	0.68	0.687	0.563	0.583	0.537	0.538	0.576	0.529	0.308	0.318	0.308	0.779	0.823	0.816	0.782	0.845	0.347
EPLC-272H		1.06	0.978	0.977	0.76	0.246	0.269	0.271	0.242	0.254	0.387	0.336	0.212	0.47	0.358	0.469	0.426	0.369	0.308

Cell Line	relative viability ([1]; first compound 0.08 µM)	relative viability ([1]; first compound 0.253 µM)	relative viability ([1]; first compound 0.8 µM)	relative viability ([1]; first compound 2.53 µM)	relative viability ([1]; first compound 8 µM)	relative viability (TGX 221 + Trametinib; first compound 0.08 µM)	relative viability (TGX 221 + Trametinib; first compound 0.253 µM)	relative viability (TGX 221 + Trametinib; first compound 0.8 µM)	relative viability (TGX 221 + Trametinib; first compound 2.53 µM)	relative viability (TGX 221 + Trametinib; first compound 8 µM)	relative viability (Ricolinostat + Dasatinib; first compound 0.253 µM)	relative viability (Ricolinostat + Dasatinib; first compound 0.8 µM)	relative viability (Ricolinostat + Dasatinib; first compound 2.53 µM)	relative viability (TGX 221 + Vorinostat; first compound 0.08 µM)	relative viability (TGX 221 + Vorinostat; first compound 0.253 µM)	relative viability (TGX 221 + Vorinostat; first compound 0.8 µM)	relative viability (TGX 221 + Vorinostat; first compound 2.53 µM)	relative viability (TGX 221 + Vorinostat; first compound 8 µM)	relative viability (Ricolinostat + Dasatinib; first compound 0.08 µM)
NCI-H1734	0.658	0.675	0.697	0.724	0.542	0.678	0.602	0.71	0.66	0.688	0.516	0.51	0.571	0.675	0.67	0.787	0.702	0.764	0.463
NCI-H2087	1.07	1.27	1.16	1.11	1.13	0.168	0.155	0.211	0.207	0.217	0.903	0.663	0.889	0.814	0.855	0.483	0.664	0.932	
NCI-H522						0.658	0.822	0.719	0.623	0.661	0.884	0.946	0.872	0.976	0.822	0.883	0.831	0.826	0.867
NCI-H1666	0.792	1.18	0.861	1.14	0.987	0.726	0.797	0.852	0.884	0.742	0.875	0.827	0.622	0.958	0.963	1.06	1.06	1.1	0.804
NCI-H1623											0.612	0.528	0.475						0.484
NCI-H2342						0.814	0.763	0.8	0.632	0.93	0.311	0.365	0.293	0.697	0.711	0.836	0.804	0.793	0.32
Calu-6	1.15	0.993	1.11	1.01	1.09														
A549	0.733	1.14	0.908	0.707	0.604														
HCC-44	0.661	0.796	0.767	0.86	0.663	1.07	1.06	1.14	1.13	0.945				1.12	1.22	1.17	1.17	1.21	
ABC-1	1.09	1.08	1.08	0.878	1.01						0.632	0.563	0.489	1.2	0.753	0.996	0.981	1.29	0.556
NCI-H1703	0.31	0.313	0.328	0.301	0.385														
NCI-H1299	1.01	1.08	1.14	1.08	0.699														
ChaGo-K-1						0.952	0.871	0.857	0.922	0.843	0.49	0.584	0.532	0.742	0.758	0.749	0.727	0.707	0.579
EBC-1	0.885	0.877	0.721	0.865	0.712														
NCI-H1650						0.456	0.655	0.669	0.596	0.416	0.381	0.289	0.287	0.482	0.478	0.521	0.676	0.48	0.275
NCI-H1648							0.403	0.569	0.435	0.471					0.295	0.651	0.395	0.421	
SW 900							0.613	0.871	0.575	0.5	0.578	0.662	0.352		0.473	0.403	0.37	0.505	0.495
IA-LM	0.549	0.879	0.626	0.75	0.374										0.981	1.01	0.827	0.941	
